Reference: patent publication US10681909B2, “Herbicidal triazoles” (FMC Corporation, priority 2014, dated 2020)

Columns and labels:
[1] = test system: barnyardgrass; assay: Test A postemergence; format: in vivo, Echinochloa crus-galli; settings: Echinochloa crus-galli, post-emergence, 240 h, 0 to 100 scale (0 no effect, 100 complete control), approx. 10 d, read-out: Plant response rating, Barnyardgrass
In short: (§1)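 Test chemicals in a non-phytotoxic solvent with surfactant were applied as a directed soil spray preemergence to seeds sown in loam/sand. Postemergence sprays went to plants 2–10 cm tall at the one- to two-leaf stage. A dash means no result.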

[2] = test system: foxtail, giant; assay: Test A postemergence; format: in vivo, Setaria faberii; settings: Setaria faberi, post-emergence, 240 h, 0 to 100 scale (0 no effect, 100 complete control), approx. 10 d, read-out: Plant response rating, Foxtail, Giant
In short: as §1

[3] = test system: pigweed; assay: Test A postemergence; format: in vivo, Amaranthus retroflexus; settings: Amaranthus retroflexus, post-emergence, 240 h, 0 to 100 scale (0 no effect, 100 complete control), approx. 10 d, read-out: Plant response rating, Pigweed
In short: as §1

[4] = test system: corn; assay: Test A postemergence; format: in vivo, Zea mays; settings: Zea mays, post-emergence, 240 h, 0 to 100 scale (0 no effect, 100 complete control), approx. 10 d
In short: as §1

[5] = test system: rice; assay: Test B flooded paddy test; format: in vivo, Oryza sativa; settings: Oryza sativa, 360 h, 125 g ai/ha, applied to paddy water at 2-leaf stage, visual rating after 13 to 15 d, scale 0 (no effect) to 100 (complete control), read-out: Plant response rating, Rice, Flood
In short: (§2)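 Pots were flooded to 3 cm above the soil at treatment, and compounds were applied directly into the paddy water. That depth was held throughout. After 13 to 15 d in a greenhouse, plants were rated visually against untreated controls.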

[6] = test system: sedge, umbrella; assay: Test B flooded paddy test; format: in vivo, Cyperus difformis; settings: Cyperus difformis, 360 h, 125 g ai/ha, applied to paddy water at 2-leaf stage, visual rating after 13 to 15 d, scale 0 (no effect) to 100 (complete control), read-out: Plant response rating, Sedge, Umbrella, Flood
In short: as §2

[7] = test system: ducksalad; assay: Test B flooded paddy test; format: in vivo, Heteranthera limosa; settings: Heteranthera limosa, 360 h, 125 g ai/ha, applied to paddy water at 2-leaf stage, visual rating after 13 to 15 d, scale 0 (no effect) to 100 (complete control), read-out: Plant response rating, Ducksalad, Flood
In short: as §2

[8] = test system: barnyardgrass; assay: Test B flooded paddy test; format: in vivo, Echinochloa crus-galli; settings: Echinochloa crus-galli, 360 h, 125 g ai/ha, applied to paddy water at 2-leaf stage, visual rating after 13 to 15 d, scale 0 (no effect) to 100 (complete control), read-out: Plant response rating, Barnyardgrass, Flood
In short: as §2

[9] = test system: ryegrass, Italian; assay: Test C postemergence; format: in vivo, Lolium multiflorum
In short: (§3)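 Seeds were planted in loam soil plus sand and sprayed preemergence. In parallel, potted plants in a peat-based medium were sprayed postemergence at 2 to 18 cm (1- to 4-leaf stage). Compounds were formulated in non-phytotoxic solvent with surfactant.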

[10] = test system: wheat (winter wheat); assay: Test C postemergence; format: in vivo, Triticum aestivum
In short: as §3

[11] = test system: galium; assay: Test C postemergence; format: in vivo, Galium aparine
In short: as §3

[12] = test system: corn; assay: Test C postemergence; format: in vivo, Zea mays
In short: as §3

[13] = test system: foxtail, giant; assay: Test C postemergence; format: in vivo, Setaria faberii
In short: as §3

[14] = test system: johnsongrass; assay: Test C postemergence; format: in vivo, Sorghum halepense
In short: as §3

[15] = test system: lambsquarters; assay: Test C postemergence; format: in vivo, Chenopodium album
In short: as §3

[16] = test system: nutsedge, yellow; assay: Test C postemergence; format: in vivo, Cyperus esculentus
In short: as §3

[17] = test system: pigweed; assay: Test C postemergence; format: in vivo, Amaranthus retroflexus
In short: as §3

[18] = test system: ragweed; assay: Test C postemergence; format: in vivo, Ambrosia elatior
In short: as §3

[19] = test system: oilseed rape; assay: Test C postemergence; format: in vivo, Brassica napus
In short: as §3

[20] = test system: chickweed; assay: Test C postemergence; format: in vivo, Stellaria media
In short: as §3

[21] = test system: oat, wild; assay: Test C postemergence; format: in vivo, Avena fatua
In short: as §3

CCOc1nc(-c2ccc(F)cc2)nn1Cc1ccnc(C(F)(F)F)c1 [Compound 8, 4-[[5-ethoxy-3-(4-fluorophenyl)-1H-1,2,4-triazol-1-yl]methyl]-2-(trifluoromethyl)pyridine]
45: Plant response rating (scale of 0 to 100 where 0 is no effect and 100 is complete control) ([18]; 31 g ai/ha) | Plant response rating (scale of 0 to 100 where 0 is no effect and 100 is complete control) ([21]; 31 g ai/ha) | Plant response rating (scale of 0 to 100 where 0 is no effect and 100 is complete control) ([21]; 250 g ai/ha)
90: Plant response rating (scale of 0 to 100 where 0 is no effect and 100 is complete control) ([19]; Oilseed Rape, 31 g ai/ha)
40: Plant response rating (scale of 0 to 100 where 0 is no effect and 100 is complete control) ([10]; 250 g ai/ha) | Plant response rating (scale of 0 to 100 where 0 is no effect and 100 is complete control) ([12]; 250 g ai/ha) | Plant response rating (scale of 0 to 100 where 0 is no effect and 100 is complete control) ([13]; 62 g ai/ha) | Plant response rating (scale of 0 to 100 where 0 is no effect and 100 is complete control) ([14]; 250 g ai/ha)
85%: pest or weed control at 125 g/ha [7]
20: Plant response rating (scale of 0 to 100 where 0 is no effect and 100 is complete control) ([13]; 31 g ai/ha)
50%: Corn plant response rating (crop injury, 0 = no effect, 100 = complete kill) at 125 g/ha ([4]; 125 g ai/ha) | plant injury at 125 g/ha [5] | pest or weed control at 125 g/ha [8]
35: Plant response rating (scale of 0 to 100 where 0 is no effect and 100 is complete control) ([9]; 62 g ai/ha) | Plant response rating (scale of 0 to 100 where 0 is no effect and 100 is complete control) ([9]; 125 g ai/ha) | Plant response rating (scale of 0 to 100 where 0 is no effect and 100 is complete control) ([10]; 62 g ai/ha) | Plant response rating (scale of 0 to 100 where 0 is no effect and 100 is complete control) ([14]; 62 g ai/ha) | Plant response rating (scale of 0 to 100 where 0 is no effect and 100 is complete control) ([21]; 125 g ai/ha)
100%: pest or weed control at 125 g/ha ([1]; 125 g ai/ha) | pest or weed control at 500 g/ha ([1]; 500 g ai/ha) | pest or weed control at 125 g/ha ([2]; 125 g ai/ha) | pest or weed control at 500 g/ha ([2]; 500 g ai/ha) | pest or weed control at 125 g/ha ([3]; 125 g ai/ha) | pest or weed control at 500 g/ha ([3]; 500 g ai/ha)
98: Plant response rating (scale of 0 to 100 where 0 is no effect and 100 is complete control) ([15]; 62 g ai/ha) | Plant response rating (scale of 0 to 100 where 0 is no effect and 100 is complete control) ([15]; 250 g ai/ha) | Plant response rating (scale of 0 to 100 where 0 is no effect and 100 is complete control) ([17]; 125 g ai/ha) | Plant response rating (scale of 0 to 100 where 0 is no effect and 100 is complete control) ([17]; 250 g ai/ha) | Plant response rating (scale of 0 to 100 where 0 is no effect and 100 is complete control) ([20]; 62 g ai/ha) | Plant response rating (scale of 0 to 100 where 0 is no effect and 100 is complete control) ([20]; 125 g ai/ha) | Plant response rating (scale of 0 to 100 where 0 is no effect and 100 is complete control) ([20]; 250 g ai/ha)
50: Plant response rating (scale of 0 to 100 where 0 is no effect and 100 is complete control) ([9]; 250 g ai/ha) | Plant response rating (scale of 0 to 100 where 0 is no effect and 100 is complete control) ([18]; 62 g ai/ha) | Plant response rating (scale of 0 to 100 where 0 is no effect and 100 is complete control) ([21]; 62 g ai/ha)
90%: Corn plant response rating (crop injury, 0 = no effect, 100 = complete kill) at 500 g/ha ([4]; 500 g ai/ha) | pest or weed control at 125 g/ha [6]
85: Plant response rating (scale of 0 to 100 where 0 is no effect and 100 is complete control) ([13]; 250 g ai/ha) | Plant response rating (scale of 0 to 100 where 0 is no effect and 100 is complete control) ([20]; 31 g ai/ha)
55: Plant response rating (scale of 0 to 100 where 0 is no effect and 100 is complete control) ([13]; 125 g ai/ha)
5: Plant response rating (scale of 0 to 100 where 0 is no effect and 100 is complete control) ([14]; 31 g ai/ha) | Plant response rating (scale of 0 to 100 where 0 is no effect and 100 is complete control) ([16]; 31 g ai/ha)
25: Plant response rating (scale of 0 to 100 where 0 is no effect and 100 is complete control) ([12]; 125 g ai/ha)
80: Plant response rating (scale of 0 to 100 where 0 is no effect and 100 is complete control) ([11]; 31 g ai/ha) | Plant response rating (scale of 0 to 100 where 0 is no effect and 100 is complete control) ([18]; 250 g ai/ha)
10: Plant response rating (scale of 0 to 100 where 0 is no effect and 100 is complete control) ([12]; 31 g ai/ha) | Plant response rating (scale of 0 to 100 where 0 is no effect and 100 is complete control) ([16]; 62 g ai/ha) | Plant response rating (scale of 0 to 100 where 0 is no effect and 100 is complete control) ([16]; 125 g ai/ha) | Plant response rating (scale of 0 to 100 where 0 is no effect and 100 is complete control) ([16]; 250 g ai/ha)
15: Plant response rating (scale of 0 to 100 where 0 is no effect and 100 is complete control) ([12]; 62 g ai/ha)
95: Plant response rating (scale of 0 to 100 where 0 is no effect and 100 is complete control) ([11]; 62 g ai/ha) | Plant response rating (scale of 0 to 100 where 0 is no effect and 100 is complete control) ([11]; 125 g ai/ha) | Plant response rating (scale of 0 to 100 where 0 is no effect and 100 is complete control) ([11]; 250 g ai/ha) | Plant response rating (scale of 0 to 100 where 0 is no effect and 100 is complete control) ([15]; 31 g ai/ha) | Plant response rating (scale of 0 to 100 where 0 is no effect and 100 is complete control) ([15]; 125 g ai/ha) | Plant response rating (scale of 0 to 100 where 0 is no effect and 100 is complete control) ([17]; 31 g ai/ha) | Plant response rating (scale of 0 to 100 where 0 is no effect and 100 is complete control) ([17]; 62 g ai/ha) | Plant response rating (scale of 0 to 100 where 0 is no effect and 100 is complete control) ([19]; Oilsee Rape, 250 g ai/ha) | Plant response rating (scale of 0 to 100 where 0 is no effect and 100 is complete control) ([19]; Oilseed Rape, 62 g ai/ha) | Plant response rating (scale of 0 to 100 where 0 is no effect and 100 is complete control) ([19]; Oilseed Rape, 125 g ai/ha)
70: Plant response rating (scale of 0 to 100 where 0 is no effect and 100 is complete control) ([18]; 125 g ai/ha)
30: Plant response rating (scale of 0 to 100 where 0 is no effect and 100 is complete control) ([9]; 31 g ai/ha) | Plant response rating (scale of 0 to 100 where 0 is no effect and 100 is complete control) ([10]; 31 g ai/ha) | Plant response rating (scale of 0 to 100 where 0 is no effect and 100 is complete control) ([10]; 125 g ai/ha) | Plant response rating (scale of 0 to 100 where 0 is no effect and 100 is complete control) ([14]; 125 g ai/ha)
